Laboratory results published in US10927354B2, “D-type amino acid dehydrogenase” (Kureha Corporation, priority 2017, dated 2021).

Experiments:
Type in all cases: biochemical, Numidum massiliense
[1] = system: three-mutation introduced D-type amino acid dehydrogenase (Thr174Ile, Arg184Met, His230Asn); assay: D-amino acid synthesis activity, three-mutation enzyme; settings: 5 mM 2-oxo acid, 200 mM ammonium chloride, pH 9.5, 50° C.; for D-amino acid synthesis activity (specific activity), Three-mutation enzyme, NADH: 0.1 mM NADH; for D-amino acid synthesis activity (specific activity), Three-mutation enzyme, NADPH: 0.1 mM NADPH
Description: DNA encoding polypeptide in which three types of mutations (Thr174Ile, Arg184Met, and His230Asn) were introduced into the amino acid sequence of D-type amino acid dehydrogenase derived from N. massiliense was obtained by synthesis. This was cleaved with restriction enzymes NdeI and EcoRI, separated by agarose gel electrophoresis, and then extracted and purified from the gel. DNA fragments after a restriction enzyme treatment were incorporated into restriction enzyme sites (NdeI and EcoRI) of pET-21a(+) (available from Novagen) of a plasmid for protein expression by a ligation reaction to construct an expression vector that retains three-mutation introduced D-type amino acid dehydrogenase gene. The expression vector was constructed such that the three-mutation introduced D-type amino acid dehydrogenase gene was incorporated into downstream of the T7 promoter and the […] binding site, and upstream of the T7 terminator.
(§1) The activity of the enzyme was measured by determining a decrease in absorbance at wavelength of 340 nm of NADPH or NADH produced by the catalytic reaction of the enzyme. […] The absorbance was measured by an ultraviolet-visible spectrophotometer UV-1800 (available from SHIMADZU).

[2] = system: D-type amino acid dehydrogenase derived from N. massiliense (wild type); assay: D-amino acid synthesis activity, wild type enzyme; settings: 5 mM 2-oxo acid, 200 mM ammonium chloride, pH 9.5, 50° C.; for D-amino acid synthesis activity (specific activity), Wild type, NADH: 0.1 mM NADH; for D-amino acid synthesis activity (specific activity), Wild type, NADPH: 0.1 mM NADPH
Protocol: as §1

[3] = system: five-mutation introduced D-type amino acid dehydrogenase (Met155Leu, Val159Gly, Thr174Ile, Arg184Met, His230Asn); assay: D-amino acid synthesis activity, five-mutation enzyme; settings: 5 mM 2-oxo acid, 200 mM ammonium chloride, pH 9.5, 50° C.; for D-amino acid synthesis activity (specific activity), Five-mutation enzyme, NADH: 0.1 mM NADH; for D-amino acid synthesis activity (specific activity), Five-mutation enzyme, NADPH: 0.1 mM NADPH
Protocol: In order to prepare a gene for a mutant enzyme in which five types of mutations (Met155Leu, Val159Gly, Thr174Ile, Arg184Met, and His230Asn) are introduced into the D-type amino acid dehydrogenase derived from N. massiliense, the six mutation-introduced D-type amino acid dehydrogenase/pET-21a(+) prepared above was used as a template to prepare the expression vector by PCR using “PrimeSTAR Max DNA Polymerase” available from Takara Bio Inc. PCR was performed according to the manufacturer's protocol. A PCR reaction solution was prepared by containing 0.3 μM of each of the following primers and 50 ng of templet DNA as described above.
as §1

[4] = system: six-mutation introduced D-type amino acid dehydrogenase (Asp95Ser, Met155Leu, Val159Gly, Thr174Ile, Arg184Met, His230Asn); assay: D-amino acid synthesis activity, six-mutation enzyme; settings: 5 mM 2-oxo acid, 200 mM ammonium chloride, pH 9.5, 50° C.; for D-amino acid synthesis activity (specific activity), Six-mutation enzyme, NADH: 0.1 mM NADH; for D-amino acid synthesis activity (specific activity), Six-mutation enzyme, NADPH: 0.1 mM NADPH
Protocol: DNA encoding polypeptide into which six types of mutations (Asp95Ser, Met155Leu, Val159Gly, Thr174Ile, Arg184Met, and His230Asn) were introduced into the amino acid sequence of D-type amino acid dehydrogenase derived from N. massiliense was obtained by synthesis. An expression vector that retains the six-mutation introduced D-type amino acid dehydrogenase gene was further constructed in the same manner as described above.
as §1

SMILES | D-amino acid synthesis activity (specific activity), Three-mutation enzyme, NADH [1] | D-amino acid synthesis activity (specific activity), Three-mutation enzyme, NADPH [1] | D-amino acid synthesis activity (specific activity), Wild type, NADH [2] | D-amino acid synthesis activity (specific activity), Wild type, NADPH [2] [µmol/min/mg] | D-amino acid synthesis activity (specific activity), Five-mutation enzyme, NADH [3] | D-amino acid synthesis activity (specific activity), Five-mutation enzyme, NADPH [3] | D-amino acid synthesis activity (specific activity), Six-mutation enzyme, NADH [4] | D-amino acid synthesis activity (specific activity), Six-mutation enzyme, NADPH [4]
CCC(C)C(=O)C(=O)O (centres unmarked) [2-oxo-3-methylpentanoic acid] | 0.043 µmol/min/mg | 4.7 µmol/min/mg | No | 0.18 | 0.025 µmol/min/mg | 4.0 µmol/min/mg | 0.0030 µmol/min/mg | 0.23 µmol/min/mg
CCC(=O)C(=O)O [2-oxobutanoic acid] | 0.028 µmol/min/mg | 2.2 µmol/min/mg | 0.011 µmol/min/mg | 1.4 | 0.014 µmol/min/mg | 1.6 µmol/min/mg | 0.0011 µmol/min/mg | 0.027 µmol/min/mg
CSCCC(=O)C(=O)O [2-oxo-4-(methylthio)butanoic acid] | 0.013 µmol/min/mg | 5.2 µmol/min/mg | No | 2.0 | 0.069 µmol/min/mg | 12.3 µmol/min/mg | 0.024 µmol/min/mg | 2.8 µmol/min/mg
CC(=O)C(=O)O [2-oxopropanoic acid] | 0.000 µmol/min/mg | 2.2 µmol/min/mg | 0.13 µmol/min/mg | 4.7 | 0.046 µmol/min/mg | 0.30 µmol/min/mg | 0.12 µmol/min/mg | 0.0070 µmol/min/mg
O=C(O)CCC(=O)C(=O)O [2-oxoglutaric acid] | No | No | No | 0.11 | No | No | No | No
CC(C)C(=O)C(=O)O [2-oxo-3-methylbutanoic acid] | 0.043 µmol/min/mg | 2.5 µmol/min/mg | 0.0012 µmol/min/mg | 0.26 | 0.018 µmol/min/mg | 2.4 µmol/min/mg | No | 0.051 µmol/min/mg
CC(C)CC(=O)C(=O)O [2-oxo-4-methylpentanoic acid] | 0.044 µmol/min/mg | 4.6 µmol/min/mg | No | 0.803 | 0.055 µmol/min/mg | 9.0 µmol/min/mg | 0.011 µmol/min/mg | 1.2 µmol/min/mg
O=C(O)CC(=O)C(=O)O [2-oxobutanedioic acid] | 0.12 µmol/min/mg | 2.0 µmol/min/mg | 0.13 µmol/min/mg | 5.2 | 0.25 µmol/min/mg | 0.39 µmol/min/mg | 0.14 µmol/min/mg | 0.44 µmol/min/mg
CCCCCCC(=O)C(=O)O [2-oxooctanoic acid] | 0.039 µmol/min/mg | 8.2 µmol/min/mg | No | 5.8 | 0.050 µmol/min/mg | 11.2 µmol/min/mg | 1.0 µmol/min/mg | 9.0 µmol/min/mg
O=C(O)C(=O)Cc1ccccc1 [2-oxo-3-phenylpropanoic acid] | 0.028 µmol/min/mg | 1.5 µmol/min/mg | 0.011 µmol/min/mg | 1.5 | 0.012 µmol/min/mg | 2.7 µmol/min/mg | 0.018 µmol/min/mg | 2.1 µmol/min/mg
